# Measurements reported in article PMC9115881, “Penicillin Derivatives Inhibit the SARS-CoV-2 Main Protease by Reaction with Its Nucleophilic Cysteine” (Journal of Medicinal Chemistry, 2022).
# Entries after “also recorded” stand apart in the source; their conditions may differ.
# Experiments:
# SARS-CoV-2 M^pro [1] = biological target: T1, SARS-CoV-2 M^pro (Severe acute respiratory syndrome coronavirus 2, UniProt P0DTD1); details: earlier SPE-MS M^pro assay; cited from earlier work
# SARS-CoV-2 M^pro [2] = biological target: T1, SARS-CoV-2 M^pro; test: SPE-MS M^pro inhibition assay, 11mer peptide substrate; format: biochemical
# SARS-CoV-2 M^pro [3] = biological target: T1, SARS-CoV-2 M^pro; test: Cocrystallization with M^pro, crystal structure; details: 2.0 Å resolution, PDB 7Z59
# Excerpt: To investigate the mode of M^pro inhibition by penicillin derivatives, we carried out crystallographic studies and obtained a structure of M^pro complexed with a penicillin sulfone 20e-derived ligand following cocrystallization (C2 space group, 2.0 Å resolution; Supporting Information Figure S7). The structure was solved by molecular replacement using a reported M^pro structure (PDB ID: 6YB7([29])) as a search model. The overall fold of the structure is similar to those previously reported for M^pro (RMSD = 0.41 Å for M^pro complexed with PF-07321332 (8, nirmatrelvir; PDB ID: 7VH8);[68] Supporting Information Figure S7).
# A frozen SARS-CoV-2 M^pro solution was thawed and diluted to 6 mg/mL (using 20 mM HEPES, pH 7.5, 50 mM NaCl). β-Lactam 20e was added to the protein solution to a final concentration of 10 mM; the mixture was incubated for 2 h at ambient temperature prior to dispensing the plates. The drop composition was: 0.15 μL protein–ligand solution, 0.3 μL 11%v/v PEG 4000, 0.1 M MES, pH 6.5, and 0.05 μL M^pro crystal seed stock. A M^pro crystal seed stock was prepared by crushing M^pro crystals with a pipette tip, suspending them in 30% PEG 4000, 5%v/v DMSO, 0.1 M MES pH 6.5, and vortexing for 60 s with approximately 10 glass beads (1.0 mm diameter, BioSpec products). The reservoir solution was: 11%v/v PEG 4K, 5%v/v DMSO, 0.1 M MES, pH 6.5. […]
# SARS-CoV-2 M^pro [4] = biological target: T1, SARS-CoV-2 M^pro; test: biochemical; format: biochemical; details: for M^pro inhibition, result in words: SPE-MS inhibition assay; for IC50: 37mer substrate 2.0 μM, mean ± SD, n ≥ 2, read-out: IC50
# SARS-CoV-2 M^pro [5] = biological target: T1, SARS-CoV-2 M^pro; test: Protein-observed M^pro assay (SPE-MS), covalent modification; format: binding; details: M^pro 2.0 μM, inhibitor 11 or 33 μM, 45 min
# Experimental: Selected compounds were tested for reaction with M^pro using protein-observed MS to inform on their mechanism of inhibition (Figure 2). Initially, M^pro was incubated with a ∼6-fold excess of the penicillin sulfone ester for 45 min and then analyzed by MS. […] When the inhibitor concentration was increased to ∼17-fold to account for the possibility of modifying all 12 M^pro cysteine or other residues, only low levels of a second covalent M^pro modification by the inhibitors were observed (Figure 2A–C). No evidence for fragmentation of the inhibitors once bound to M^pro was accrued.
# Solutions of the inhibitors (100% DMSO) were dry-dispensed across 384-well polypropylene assay plates (Greiner) (for 11 or 33 μM top concentrations) using an ECHO 550 acoustic dispenser (Labcyte). DMSO was used as a negative control. Each reaction was performed in technical duplicates. The enzyme mixture (50 μL/well), containing M^pro (2.0 μM) in buffer (20 mM HEPES, pH 7.5), was dispensed across the penicillin-containing 384-well assay plates with a multidrop dispenser (Thermo Fischer Scientific). The reaction mixture was incubated for 45 min at 20 °C under an ambient atmosphere prior to analysis by SPE-MS.
# MS analyses were performed using a RapidFire RF 365 high-throughput sampling robot (Agilent) attached to an iFunnel Agilent 6550 accurate mass Q-TOF mass spectrometer using a C4 cartridge and the same parameters as described above, with the exception of the gas temperature that was reduced to 225 °C. Protein spectra were deconvoluted for the m/z range 850–1350 Da, with a resolution of 2 Da and with a 10–60 kDa cutoff using the MaxEnt1 function in Agilent MassHunter Version 7. The deconvoluted files were extracted as csv files, sorted using Enthought Canopy GUI, and normalized and plotted using GraphPad Prism 9.
# [6] = biological target: T2, active site (Cys145) TPCK-blocked M^pro (Severe acute respiratory syndrome coronavirus 2, UniProt P0DTD1); test: Protein-observed M^pro assay after preincubation with TPCK; format: binding, SARS-CoV-2; details: M^pro 2.0 μM preincubated with TPCK 10 μM for 180 min, then inhibitor 60 min
# T2 construct: employing SARS-CoV-2 M^pro (2.0 μM); made in house
# [7] = Table 1, compounds 15, 16: 11mer peptide as substrate, M^pro […], substrate 2.0 μM, read-out: IC50
# [8] = Table 3, compounds 25c, 25g: 11mer peptide as substrate, M^pro […], substrate 2.0 μM, read-out: IC50
structure (smiles),measurement,setting,value
"CC1(C)[C@H](C(=O)O)N2C(=O)C[C@H]2S1(=O)=O [Compound 33, sulbactam, reference compound]","M^pro inhibition, reported result in words",SARS-CoV-2 M^pro [1],inability of sulbactam to inhibit M^pro
"CC1(C)[C@H](C(=O)OCc2ccccc2)N2C(=O)[C@H](NC(=O)COc3ccccc3)[C@H]2S1(=O)=O [Compound 16, (6S)-penicillin V sulfone benzyl ester]",IC50,SARS-CoV-2 M^pro [2]; [7],> 50 µM
CC1(C)[C@H](C(=O)OCc2ccc(F)cc2F)N2C(=O)[C@@H](NC(=O)COc3ccccc3)[C@H]2S1(=O)=O [Compound 20e],covalent modification seen in the crystal structure,SARS-CoV-2 M^pro [3],active site Cys145 S-acylation
"CC1(C)[C@H](C(=O)OCc2ccccc2)N2C(=O)[C@@H](NC(=O)Cc3ccccc3)[C@H]2S1(=O)=O [Compound 11, penicillin G sulfone benzyl ester]","M^pro inhibition, reported result in words",SARS-CoV-2 M^pro [1],inactive
same,"M^pro inhibition, result in words",SARS-CoV-2 M^pro [4],did not inhibit M^pro
same,IC50,"SARS-CoV-2 M^pro [4]; Table 3, M^pro […]",> 50 µM
"CC1(C)[C@H](C(=O)OCc2ccccc2)N2C(=O)[C@H](NC(=O)COc3ccccc3)[C@H]2[S@@+]1[O-] [Compound 15, (6S)-penicillin V (S)-sulfoxide benzyl ester]",IC50,SARS-CoV-2 M^pro [2]; [7],> 50 µM
C#CCOC(=O)[C@@H]1N2C(=O)[C@@H](NC(=O)COc3ccccc3)[C@H]2S(=O)(=O)C1(C)C [Compound 20q],IC50,"SARS-CoV-2 M^pro [4]; Table 2, M^pro […]",3 ± 0.4 µM
same,covalent modification of M^pro by protein-observed MS,SARS-CoV-2 M^pro [5],covalent reaction with Cys145; also recorded: covalent reaction with a single nucleophilic protein residue; also recorded: clear evidence for the covalent reaction
same,covalent reaction with TPCK-pretreated M^pro by protein-observed MS,[6],reaction is ablated by pretreatment of M^pro with the active site binding inhibitor TPCK; also recorded: do not efficiently react covalently
"CC1(C)[C@H](C(=O)OCc2ccccc2)N2C(=O)[C@@H](NC(=O)COc3ccccc3)[C@H]2S1(=O)=O [Compound 10, penicillin V sulfone benzyl ester]",IC50,"SARS-CoV-2 M^pro [2]; Table S1, M^pro 0.15 μM, TSAVLQ/SGFRK-NH2 2.0 μM, technical duplicates n = 2, mean ± SD, read-out: IC50 [μM] (11mer peptide)",8.7 ± 0.2 µM
same,"M^pro inhibition, reported result in words",SARS-CoV-2 M^pro [1],inhibits M^pro by reaction with the active site cysteine residue
same,IC50,"SARS-CoV-2 M^pro [4]; Table 1, M^pro […], 15 min preincubation",6.6 ± 2.7 µM
same,IC50,"SARS-CoV-2 M^pro [4]; Table 3, M^pro […]",6.6 ± 2.7 µM
same,covalent modification of M^pro by protein-observed MS,SARS-CoV-2 M^pro [5],covalent reaction with Cys145; also recorded: covalent reaction with a single nucleophilic protein residue; also recorded: clear evidence for the covalent reaction
same,covalent reaction with TPCK-pretreated M^pro by protein-observed MS,[6],reaction is ablated by pretreatment of M^pro with the active site binding inhibitor TPCK; also recorded: do not efficiently react covalently
CC1(C)[C@H](C(=O)OCc2ccccc2)N2C(=O)[C@@H](NC(=O)OCc3ccccc3)[C@H]2S1(=O)=O [Compound 25a],"M^pro inhibition, result in words",SARS-CoV-2 M^pro [4],abolished M^pro inhibition
same,IC50,"SARS-CoV-2 M^pro [4]; Table 3, M^pro […]",> 50 µM
same,covalent modification of M^pro by protein-observed MS,SARS-CoV-2 M^pro [5],do not covalently react with Cys145; also recorded: does not modify M^pro covalently; also recorded: but not 25a
"CC1(C)[C@H](C(=O)OCc2ccccc2)N2C(=O)C(Br)(Br)[C@H]2S1(=O)=O [Compound 28, 6,6-dibromopenicillanic acid sulfone benzyl ester]",IC50,"SARS-CoV-2 M^pro [4]; Table 4, M^pro 0.15 μM",~0.6 µM
same,covalent modification of M^pro by protein-observed MS,SARS-CoV-2 M^pro [5],initial covalent M^pro binding is followed by rapid subsequent reaction to give new species
Cc1onc(-c2c(Cl)cccc2Cl)c1C(=O)N[C@@H]1C(=O)N2[C@@H](C(=O)OCc3ccccc3)C(C)(C)S(=O)(=O)[C@H]12 [Compound 25c],IC50,SARS-CoV-2 M^pro [2]; [8],> 50 µM
CCN1CCC(NC(=O)N[C@@H](C(=O)N[C@@H]2C(=O)N3[C@@H](C(=O)OCc4ccccc4)C(C)(C)S(=O)(=O)[C@H]23)c2ccccc2)C(=O)C1=O (some centres unmarked) [Compound 25g],IC50,SARS-CoV-2 M^pro [2]; [8],> 50 µM
